{
  "source": "ChEMBL document CHEMBL5365529",
  "about": "“Construction and Evaluation of Novel Dual-function Antifungal Inhibitors and Covalent Organic Framework Carriers Based on the Infection Microenvironment” (J Med Chem, 2023)",
  "key": {"[1]": {"target": "T1, Lanosterol 14-alpha demethylase (Candida albicans (strain SC5314 / ATCC MYA-2876) (Yeast), UniProt P10613)", "T1 sequence (P10613 whole entry)": "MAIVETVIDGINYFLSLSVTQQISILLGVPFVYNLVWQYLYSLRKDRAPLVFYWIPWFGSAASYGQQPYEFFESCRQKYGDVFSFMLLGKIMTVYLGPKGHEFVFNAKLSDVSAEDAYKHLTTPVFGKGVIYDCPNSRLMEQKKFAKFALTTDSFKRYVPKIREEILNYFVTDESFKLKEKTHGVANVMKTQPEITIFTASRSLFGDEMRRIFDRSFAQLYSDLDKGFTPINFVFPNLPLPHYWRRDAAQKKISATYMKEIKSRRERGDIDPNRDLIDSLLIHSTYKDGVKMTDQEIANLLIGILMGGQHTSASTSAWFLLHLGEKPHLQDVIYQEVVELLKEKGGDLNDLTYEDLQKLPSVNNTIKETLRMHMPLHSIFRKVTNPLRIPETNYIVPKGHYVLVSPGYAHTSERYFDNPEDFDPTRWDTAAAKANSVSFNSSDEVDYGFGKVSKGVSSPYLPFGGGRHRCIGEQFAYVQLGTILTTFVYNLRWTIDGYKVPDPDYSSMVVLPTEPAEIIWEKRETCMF", "experiment": "Inhibition of CYP51 in Candida albicans SC5314 assessed as unknown sterol level at 4 ug/ml incubated for 16 hrs by GC-MS analysis (reference value: 5.35 %)", "set-up": "scale not given: the % may be the effect or the level left", "settings": "at 4 µg/mL"}, "[2]": {"target": "T1, Lanosterol 14-alpha demethylase", "experiment": "Inhibition of CYP51 in Candida albicans SC5314 assessed as lanosterol level at 4 ug/ml incubated for 16 hrs by GC-MS analysis relative to control", "set-up": "scale not given: the % may be the effect or the level left", "settings": "at 4 µg/mL"}, "Candida albicans [3]": {"tested_on": "Candida albicans", "experiment": "Antifungal activity against Candida albicans SC5314 assessed as fungal growth inhibition incubated for 72 hrs by CLSI based susceptibility test", "format": "functional"}, "Nakaseomyces glabratus": {"tested_on": "Nakaseomyces glabratus", "experiment": "Antifungal activity against Candida glabrata assessed as fungal growth inhibition incubated for 72 hrs by CLSI based susceptibility test", "format": "functional"}, "Candida tropicalis": {"tested_on": "Candida tropicalis", "experiment": "Antifungal activity against Candida tropicalis ATCC 1369 assessed as fungal growth inhibition incubated for 72 hrs by CLSI based susceptibility test", "format": "functional"}, "Cryptococcus neoformans": {"tested_on": "Cryptococcus neoformans", "experiment": "Antifungal activity against Cryptococcus neoformans ZKCC 2209 assessed as fungal growth inhibition incubated for 72 hrs by CLSI based susceptibility test", "format": "functional"}, "Aspergillus fumigatus": {"tested_on": "Aspergillus fumigatus", "experiment": "Antifungal activity against Aspergillus fumigatus KM8001 assessed as fungal growth inhibition incubated for 72 hrs by CLSI based susceptibility test", "format": "functional"}, "Candida albicans [4]": {"tested_on": "Candida albicans", "experiment": "Antifungal activity against FLC-resistant Candida albicans 632 assessed as fungal growth inhibition incubated for 72 hrs by CLSI based susceptibility test", "format": "functional"}, "Candida albicans [5]": {"tested_on": "Candida albicans", "experiment": "Antifungal activity against FLC-resistant Candida albicans 17# assessed as fungal growth inhibition incubated for 72 hrs by CLSI based susceptibility test", "format": "functional"}, "Candida albicans [6]": {"tested_on": "Candida albicans", "experiment": "Antifungal activity against FLC-resistant Candida albicans CaR assessed as fungal growth inhibition incubated for 72 hrs by CLSI based susceptibility test", "format": "functional"}, "Candida albicans [7]": {"tested_on": "Candida albicans", "experiment": "Antifungal activity against FLC-resistant Candida albicans 901 assessed as fungal growth inhibition incubated for 72 hrs by CLSI based susceptibility test", "format": "functional"}, "Candida albicans [8]": {"tested_on": "Candida albicans", "experiment": "Antifungal activity against FLC-resistant Candida albicans 904 assessed as fungal growth inhibition incubated for 72 hrs by CLSI based susceptibility test", "format": "functional"}, "[9]": {"target": "T1, Lanosterol 14-alpha demethylase", "experiment": "Inhibition of CYP51 in Candida albicans SC5314 using lanosterol as substrate incubated for 60 mins by HPLC analysis"}, "Candida albicans [10]": {"tested_on": "Candida albicans", "experiment": "Induction of mitochondrial membrane depolarization in Candida albicans SC5314 by JC-1 staining based flow cytometry (reference value: 12.51 %)", "format": "functional"}, "Candida albicans [11]": {"tested_on": "Candida albicans", "experiment": "Induction of apoptosis in Candida albicans SC5314 assessed as apoptotic cells incubated for 48 hrs by annexin V-FITC/PI staining based flow cytometry (reference value: 2.12 %)", "format": "functional"}, "Candida albicans [12]": {"tested_on": "Candida albicans", "experiment": "Induction of apoptosis in Candida albicans SC5314 assessed as necrotic cells incubated for 48 hrs by annexin V-FITC/PI staining based flow cytometry (reference value: 2.12 %)", "format": "functional"}, "Candida albicans [13]": {"tested_on": "Candida albicans", "experiment": "Antifungal activity against Candida albicans 901 infected in BALB/c mouse assessed as reduction in fungal growth at 0.5 ug/g administered 6 times measured after 4 days by H and E staining based analysis", "format": "functional, organism-based", "settings": "dose 0.5 µg/g, time 4.0 day"}, "Candida albicans [14]": {"tested_on": "Candida albicans", "experiment": "Antifungal activity against Candida albicans 901 infected in BALB/c mouse assessed as inhibition of fungal proliferation at 0.5 ug/g administered 6 times measured after 4 days in presence of Biphenyl isopropyl ester by Masson staining based analysis", "format": "functional, organism-based", "settings": "dose 0.5 µg/g, time 4.0 day"}, "Candida albicans [15]": {"tested_on": "Candida albicans", "experiment": "Antifungal activity against Candida albicans 901 infected in BALB/c mouse assessed as inhibition of fungal proliferation at 0.5 ug/g administered 6 times measured after 4 days in presence of Biphenyl isopropyl ester by GMS staining based analysis", "format": "functional, organism-based", "settings": "dose 0.5 µg/g, time 4.0 day"}, "Candida albicans [16]": {"tested_on": "Candida albicans", "experiment": "Antifungal activity against Candida albicans 901 infected in BALB/c mouse assessed as decrease in collagen fiber content at 0.5 ug/g administered 6 times measured after 4 days in presence of Biphenyl isopropyl ester by Masson staining based analysis", "format": "functional, organism-based", "settings": "dose 0.5 µg/g, time 4.0 day"}, "Candida albicans [17]": {"tested_on": "Candida albicans", "experiment": "Antifungal activity against Candida albicans 901 infected in BALB/c mouse assessed as decrease in collagen fiber content at 0.5 ug/g administered 6 times measured after 4 days in presence of Biphenyl isopropyl ester by GMS staining based analysis", "format": "functional, organism-based", "settings": "dose 0.5 µg/g, time 4.0 day"}, "Candida albicans [18]": {"tested_on": "Candida albicans", "experiment": "Antifungal activity against Candida albicans 901 infected in BALB/c mouse assessed as repair of tissue damage at 0.5 ug/g administered 6 times measured after 4 days in presence of Biphenyl isopropyl ester by Masson staining based analysis", "format": "functional, organism-based", "settings": "dose 0.5 µg/g, time 4.0 day"}, "Candida albicans [19]": {"tested_on": "Candida albicans", "experiment": "Antifungal activity against Candida albicans 901 infected in BALB/c mouse assessed as repair of tissue damage at 0.5 ug/g administered 6 times measured after 4 days in presence of Biphenyl isopropyl ester by GMS staining based analysis", "format": "functional, organism-based", "settings": "dose 0.5 µg/g, time 4.0 day"}, "[20]": {"experiment": "Toxicity in BALB/c mouse infected with Candida albicans 901 assessed as pathological change in heart at 0.5 ug/g administered 6 times measured after 4 days in presence of Biphenyl isopropyl ester by H and E staining based analysis", "format": "tissue-based", "settings": "in vivo, 96 h, dose 0.5 µg/g, time 4 day"}, "[21]": {"experiment": "Toxicity in BALB/c mouse infected with Candida albicans 901 assessed as pathological change in lung at 0.5 ug/g administered 6 times measured after 4 days in presence of Biphenyl isopropyl ester by H and E staining based analysis", "format": "tissue-based", "settings": "in vivo, 96 h, dose 0.5 µg/g, time 4 day"}, "[22]": {"experiment": "Toxicity in BALB/c mouse infected with Candida albicans 901 assessed as pathological change in spleen at 0.5 ug/g administered 6 times measured after 4 days in presence of Biphenyl isopropyl ester by H and E staining based analysis", "format": "tissue-based", "settings": "in vivo, 96 h, dose 0.5 µg/g, time 4 day"}, "[23]": {"experiment": "Toxicity in BALB/c mouse infected with Candida albicans 901 assessed as pathological change in liver at 0.5 ug/g administered 6 times measured after 4 days in presence of Biphenyl isopropyl ester by H and E staining based analysis", "format": "tissue-based", "settings": "in vivo, 96 h, dose 0.5 µg/g, time 4 day"}, "[24]": {"experiment": "Toxicity in BALB/c mouse infected with Candida albicans 901 assessed as pathological change in kidney at 0.5 ug/g administered 6 times measured after 4 days in presence of Biphenyl isopropyl ester by H and E staining based analysis", "format": "tissue-based", "settings": "in vivo, 96 h, dose 0.5 µg/g, time 4 day"}, "Mus musculus [25]": {"tested_on": "Mus musculus", "experiment": "Antiinflammatory activity in BALB/c mouse infected with Candida albicans 901 assessed as decrease in INF-gamma level at 0.5 ug/g administered 6 times measured after 4 days by Western blot analysis", "format": "functional, organism-based", "settings": "dose 0.5 µg/g, time 4.0 day"}, "Mus musculus [26]": {"tested_on": "Mus musculus", "experiment": "Antiinflammatory activity in BALB/c mouse infected with Candida albicans 901 assessed as decrease in NLRP3 level at 0.5 ug/g administered 6 times measured after 4 days by Western blot analysis", "format": "functional, organism-based", "settings": "dose 0.5 µg/g, time 4.0 day"}, "Mus musculus [27]": {"tested_on": "Mus musculus", "experiment": "Antiinflammatory activity in BALB/c mouse infected with Candida albicans 901 assessed as decrease in kappaB-p65 level at 0.5 ug/g administered 6 times measured after 4 days by Western blot analysis", "format": "functional, organism-based", "settings": "dose 0.5 µg/g, time 4.0 day"}, "Candida albicans [28]": {"tested_on": "Candida albicans", "experiment": "Induction of immunity in BALB/c mouse infected with Candida albicans 901 assessed as decrease in PD-L1 level at 0.5 ug/g administered 6 times measured after 4 days by Western blot analysis", "format": "functional, organism-based", "settings": "dose 0.5 µg/g, time 4.0 day"}, "Candida albicans [29]": {"tested_on": "Candida albicans", "experiment": "Induction of immunity in BALB/c mouse infected with Candida albicans 901 assessed as decrease in PD-L1 level at 0.5 ug/g administered 6 times measured after 4 days in presence of Biphenyl isopropyl ester by Western blot analysis", "format": "functional, organism-based", "settings": "dose 0.5 µg/g, time 4.0 day"}, "Candida albicans [30]": {"tested_on": "Candida albicans", "experiment": "Induction of immunity in BALB/c mouse infected with Candida albicans 901 assessed as decrease in PD-L1 level at 0.5 ug/g administered 6 times measured after 4 days by IHC analysis", "format": "functional, organism-based", "settings": "dose 0.5 µg/g, time 4.0 day"}, "Candida albicans [31]": {"tested_on": "Candida albicans", "experiment": "Induction of immunity in BALB/c mouse infected with Candida albicans 901 assessed as decrease in PD-L1 level at 0.5 ug/g administered 6 times measured after 4 days in presence of Biphenyl isopropyl ester by IHC analysis", "format": "functional, organism-based", "settings": "dose 0.5 µg/g, time 4.0 day"}},
  "note": "The source made the active and inactive calls. No cut-off for these calls is given here.",
  "data": [
    {"smiles": "CC(=O)N1CCN(c2ccc(OCC3COC(Cn4ccnc4)(c4ccc(Cl)cc4Cl)O3)cc2)CC1", "note": "(stereo not given) [KETOCONAZOLE]", "values": [
      {"measurement": "Activity", "setting": "[1]", "value": 5.07, "unit": "%"},
      {"measurement": "Activity", "setting": "[2]", "value": 13.06, "unit": "%"},
      {"measurement": "MIC50", "setting": "Candida albicans [3]", "value": 0.25, "unit": "mg/L"},
      {"measurement": "MIC50", "setting": "Nakaseomyces glabratus", "value": 1, "unit": "mg/L"},
      {"measurement": "MIC50", "setting": "Candida tropicalis", "value": 0.5, "unit": "mg/L"},
      {"measurement": "MIC50", "setting": "Cryptococcus neoformans", "value": 4, "unit": "mg/L"},
      {"measurement": "MIC50", "setting": "Aspergillus fumigatus", "value": 4, "unit": "mg/L"},
      {"measurement": "MIC50", "setting": "Candida albicans [4]", "value": "≥ 8", "unit": "mg/L"},
      {"measurement": "MIC50", "setting": "Candida albicans [5]", "value": 4, "unit": "mg/L"},
      {"measurement": "MIC50", "setting": "Candida albicans [6]", "value": "≥ 8", "unit": "mg/L"},
      {"measurement": "MIC50", "setting": "Candida albicans [7]", "value": 4, "unit": "mg/L"},
      {"measurement": "MIC50", "setting": "Candida albicans [8]", "value": 4, "unit": "mg/L"},
      {"measurement": "IC50", "setting": "[9]", "value": 0.13, "unit": "µM"},
      {"measurement": "Activity", "setting": "Candida albicans [10]", "value": 34.74, "unit": "%"},
      {"measurement": "Activity", "setting": "Candida albicans [11]", "value": 25.91, "unit": "%"},
      {"measurement": "Activity", "setting": "Candida albicans [12]", "value": 25.91, "unit": "%"},
      {"measurement": "Activity", "setting": "Candida albicans [13]", "value": "Active"},
      {"measurement": "inhibition", "setting": "Candida albicans [14]", "value": "Active"},
      {"measurement": "inhibition", "setting": "Candida albicans [15]", "value": "Active"},
      {"measurement": "Activity", "setting": "Candida albicans [16]", "value": "Active"},
      {"measurement": "Activity", "setting": "Candida albicans [17]", "value": "Active"},
      {"measurement": "Activity", "setting": "Candida albicans [18]", "value": "Active"},
      {"measurement": "Activity", "setting": "Candida albicans [19]", "value": "Active"},
      {"measurement": "Activity", "setting": "[20]", "value": "Non-Toxic"},
      {"measurement": "Activity", "setting": "[21]", "value": "Non-Toxic"},
      {"measurement": "Activity", "setting": "[22]", "value": "Non-Toxic"},
      {"measurement": "Activity", "setting": "[23]", "value": "Non-Toxic"},
      {"measurement": "Activity", "setting": "[24]", "value": "Non-Toxic"},
      {"measurement": "Activity", "setting": "Mus musculus [25]", "value": "inactive"},
      {"measurement": "Activity", "setting": "Mus musculus [26]", "value": "inactive"},
      {"measurement": "Activity", "setting": "Mus musculus [27]", "value": "inactive"},
      {"measurement": "Activity", "setting": "Candida albicans [28]", "value": "Active"},
      {"measurement": "Activity", "setting": "Candida albicans [29]", "value": "Active"},
      {"measurement": "Activity", "setting": "Candida albicans [30]", "value": "Active"},
      {"measurement": "Activity", "setting": "Candida albicans [31]", "value": "Active"}
    ]}
  ]
}
